What was measured:
[1] = test system: release of TNF from THP-1 cells; experiment: Cellular Assay (Protocol B): inhibition of release of TNF from LPS-stimulated THP-1 cells; type: cell-based; settings: Homo sapiens, LPS 5 microg/mL, 4 h
Method: For example, the following cell-based assay was used to assess such activity:
THP-1 cells, cultured in RPMI 1640 supplemented with 10% FCS, were distributed into 24-well plates, 1 mL of a suspension of 1×10^6 cells/mL in each well. Compounds to be tested, dissolved in DMSO and diluted with the culture medium (1% final DMSO concentration) were added. Plates were incubated for 30 min at 37° C. in 5% CO2, and lipopolisaccharide (LPS 0111:B4, 5 microg/mL) was added as a stimulant. After a further 4 h incubation, cells were harvested, centrifuged (2,000 rpm, 7 min), and the surnatant was collected and freezed (-20° C.) until analysis. Analysis was run by classical ELISA methodology (monoclonal anti-TNF-a antibody, rabbit capture policlonal antibody, and peroxidated anti-rabbit antibody).

[2] = Pharmacokinetic Assay (Protocol C): plasma levels after i.v. and oral administration to rats; type: in vivo, rat (male Sprague-Dawley); settings: 15 mg/kg
Method: Male rats (Sprague-Dawley; body weight about 250-300 g) were acclimatized for about one week before the start of the study. […] Before treatment, rats were overnight fasted. For each compound to be assessed, three rats were treated intravenously (injection in the tail vein as a bolus) with a single dose of 15 mg/kg (as free base or free acid if needed) body weight. Other three rats were treated orally (single bolus dose by gastric gavage) with 15 mg/kg of the same compound. In same cases, according to the detection limit of each particular compound, and its availability in stock, these standard doses were modified as needed.
Blood samples were collected into syringes especially prepared for use with the cannulated animals via the SCV cannula. Under standard conditions, blood samples (0.2 mL) were transferred into heparinized tubes at the following times: 0 (pre-dose), 2, 4, 8, 16, 30, 45, 60, 90 min, 2, 4, 6, 8 and 24 h after iv administration; 0 (pre-dose), 5, 10, 30, 45, 60, 90 min, 2, 4, 6, 8, and 24 h after oral administration. Plasma was obtained immediately by centrifugation (about 10,000 rpm for 3 min) and stored at -80° C. till analysis. Plasma samples were assayed for parent drug concentrations using an appropriate analytical method. Under standard conditions, liquid chromatography--tandem mass spectrometry (LC/MS-MS) was used.
Non-compartmental pharmacokinetic calculations were performed with the aid of Pharm-NCA package (SIMED, France). Maximum plasma concentration, Cmax, and the corresponding time, tmax, were read as the coordinates of the highest raw-data point for individual plasma profiles. Terminal phase was evaluated by graphic judgement by eye; terminal rate constant, was calculated as the slope of the terminal linear portion of natural log-transformed plasma concentrations vs. time curve, obtained using linear regression. Terminal half-life, t1/2,z, was calculated as ln(2)/lz. The area under the plasma concentration-time curve was estimated by the linear trapezoidal rule up to the last measured concentration (AUC(0-tz)) and extrapolated to infinity assuming monoexponential decay, using the formula AUC=AUC(0-tz)+C(tz)/lz, where C(tz) is the measured concentration of the last point with detectable concentration. Following iv dosing, systemic clearance was obtained using the formula Cl=Dose/AUC. According to Protocol C, the pharmacokinetic in rats of some representative compounds within the present invention was evaluated. Significant pharmacokinetic data obtained in rats at a 15 mg/kg dose were as follows: […]

In the case of `CNC(=O)[C@@H](NC(=O)[C@H](CC(C)C)[C@](O)(CO)C(=O)NO)C(C)(C)C` [Example 3], the IC50 [1] is reported as 8.1 µM, the “plasma clearance compared with literature hydroxamic acid MMP inhibitors” value ([2]; to our best knowledge) is reported as “inferior to that reported for any hydroxamic acid MMP inhibitor disclosed in the literature” and the AUC iv ([2]; iv) is reported as 1.53 mg·min/mL. For the same compound, the half-life ([2]; rat, plasma, terminal half-life, read-out: t1/2,z (converted)) was 5.4 h, the clearance ([2]; rat, plasma, iv) was 9.89 mL/min/kg and the AUC ([2]; rat, plasma, oral) was 1100 ng·h/mL.

From US6194451A, “Matrix metalloproteinase inhibitors” (Pharmacia & Upjohn S.p.A., priority 1997, dated 2001)
